# Entries after “also recorded” stand apart in the source; their conditions may differ.
# What was measured:
# [1] = test system: Escherichia coli RtcB ligase; experiment: E. coli RtcB RNA ligation assay (3′-P and 5′-OH termini, urea-polyacrylamide gel); format: biochemical; settings: for use as cofactor in ligation of 3′-P and 5′-OH RNA termini: in place of GTP, tRNA anticodon stem-loop mimic substrate, with Mn2+ (FIG. 1B, 1C)
# Description: FIG. 1. […] (A) RNA ligation substrate that mimics a broken tRNA anti-codon. FAM label allows visualization in a urea-polyacrylamide gel. […] (B) Cofactor- and metal-dependence of ligation. Reactions contain manganese, except in the “—Mn^2+” lane. The lane labeled “C78A” is a ligation reaction performed with RtcB that has a C78A substitution within the predicted metal binding site. (C) Ligation assays using GTP analogues as cofactors. […] (E) RNA termini specificity of RtcB. Modifications to the ligatable ends of the tRNA mimic substrate were made as indicated and tested in ligation reactions.
# To assay for ligation, we initially used two single-stranded RNA (ssRNA) oligos that were each 10 nucleotides in length. The 5′ RNA fragment was labeled with 6-carboxyfluorescein (FAM) at its 5′ end and phosphorylated at its 3′ end. The 3′ RNA fragment had hydroxyl groups at each end. We intended to convert the 3′-P into a 2′,3′-cyclic phosphate by incubation with RtcA and ATP, so as to produce a suitable substrate for RtcB.
# These reactions were performed with high concentrations of GTP analogues to ensure saturation of RtcB.
# We investigated the RNA termini structure requirements for ligation by modifying the ends of our tRNA mimic substrate. First, all four combinations of either a phosphate or hydroxyl group at each termini were sampled while maintaining a 2′-OH on the 5′ side of the ligation junction. […] Next, the importance of the terminal ribose 2′-OH for ligation was probed by replacing this hydroxyl group with either hydrogen (2′-H) or fluorine (2′-F).
# [2] = test system: P. horikoshii RtcB; experiment: P. horikoshii RtcB RNA ligation assay; format: biochemical, Pyrococcus horikoshii; settings: for use as cofactor in RNA ligation with Archease: Archease 0.25 μM, NTP 100 μM, RtcB 5 μM (FIG. 10B, 11B)
# Description: FIG. 2. P. horikoshii RtcB catalyzed ligation of 3′-P and 5′-OH RNA termini. P. horikoshii RtcB requires Mn^2+ and GTP for ligation. […] The lane labeled “2′-deoxy” is a ligation reaction using the tRNA mimic substrate but with a 3′-P/2′-H termini on its 5′ fragment. The lane labeled “C98A” is a ligation reaction with RtcB that has a C98A substitution within the predicted metal-binding site.
# RtcB from the archaeal domain of life likewise catalyzes the GTP-dependent ligation of 3′-P and 5′-OH RNA termini. The crystal structure of RtcB from a hyperthermophilic archaeon, Pyrococcus horikoshii, was determined as part of a structural genomics project (21). […] The P. horikoshii homologue has 29% amino-acid sequence identity to E. coli RtcB, and 49% identity to the human ligase (HSPC117). To investigate if RtcB from archaea catalyzes the GTP-dependent ligation of 3′-P and 5′-OH RNA termini, we synthesized a P. horikoshii rtcB gene and produced soluble enzyme in E. coli. […] The P. horikoshii ligase also required a 2′-OH on the terminal nucleotide of the 5′ RNA fragment.
# RNA Ligation Assay. Ligation assays with single-stranded RNA as the substrate used two 10-nt oligonucleotides that were synthesized by Integrated DNA Technologies (15). […] The 3′ RNA fragment had hydroxyl groups on each end. The sequence of the 5′ fragment was FAM-5′-AAAUAACAAA-3′-P (SEQ ID NO:6) and the sequence of the 3′ RNA fragment was 5′-AAAUAACAAA-3′ (SEQ ID NO:6). Ligation reactions were performed in 10-μL solutions consisting of 50 mM Bis-Tris buffer, pH 7.0, containing NaCl (300 mM), […] (0.25 mM), GTP (100 μM), each RNA fragment (1 μM), and RtcB (10 μM). Reaction mixtures were incubated at 70° C. for 1 h prior to the addition of water (40 μL) and RNA-loading buffer (50 μL). Reaction mixtures were subjected to electrophoresis and visualized as previously described in the previous examples.
# The ability of Archease to activate P. horikoshii RtcB was tested in reactions using ssRNA substrates. Ligation reactions included a 10-nt 5′ RNA fragment and a 10-nt 3′ RNA fragment. […] The 3′ RNA fragment had hydroxyl groups on each end. The sequence of the 5′ fragment was FAM-5′-AAAUAACAAA-3′-P (SEQ ID NO:6) and the sequence of the 3′ RNA fragment was 5′-AAAUAACAAA-3′ (SEQ ID NO:6). Ligation reactions were performed in 50-μL solutions consisting of 50 mM Tris-HCl buffer, pH 7.4, containing NaCl (300 mM), MnCl2 (0.25 mM), GTP (100 μM), RNA fragments (100 pmol of each), and P. horikoshii RtcB (5 μM).
# Ligation reaction mixtures were set up as described above, and each was divided into two tubes. No Archease was added to one set of reaction mixtures (FIG. 10A), and Archease was added to a concentration of 0.25 μM to the other set (FIG. 10B). […] Archease had no effect on ligation reactions that used 2′-F RNA.
# We tested the ability of Archease to enable RtcB to use cofactors other than GTP or dGTP. Ligation reaction mixtures with RtcB were set up as described above, and each was divided into two tubes. No Archease was added to one set of reaction mixtures (FIG. 11A), and Archease was added to a concentration of 0.25 μM to the other set (FIG. 11B). The various NTPs were included at a concentration of 100 μM.
Molecule,use as cofactor in ligation of 3′-P and 5′-OH RNA termini [1],further results
Nc1nc2c(ncn2[C@@H]2O[C@H](COP(=O)(O)OP(=O)(O)O)[C@@H](O)[C@H]2O)c(=O)[nH]1 [GDP],allowed for low levels of ligation,
Nc1ccn([C@@H]2O[C@H](COP(=O)(O)OP(=O)(O)OP(=O)(O)O)[C@@H](O)[C@H]2O)c(=O)n1 [CTP],unable to substitute for GTP,use as cofactor in RNA ligation with Archease [2]: not
Nc1nc2c(ncn2[C@@H]2O[C@H](COP(=O)(O)O)[C@@H](O)[C@H]2O)c(=O)[nH]1 [GMP],allowed for low levels of ligation,
Nc1nc2c(ncn2[C@@H]2O[C@H](COP(=O)(O)OP(=O)(O)CP(=O)(O)O)[C@@H](O)[C@H]2O)c(=O)[nH]1 [GppCp],"enabled ligation, albeit at lower efficiency than did GTP",
NC(=O)c1ccc[n+]([C@@H]2O[C@H](COP(=O)([O-])OP(=O)(O)OC[C@H]3O[C@@H](n4cnc5c(N)ncnc54)[C@H](O)[C@@H]3O)[C@@H](O)[C@H]2O)c1 [NAD^+],unable to substitute for GTP,
"Nc1nc2c(ncn2[C@H]2C[C@H](O)[C@@H](COP(=O)(O)OP(=O)(O)OP(=O)(O)O)O2)c(=O)[nH]1 [dGTP, deoxyguanosine-5′-triphosphate]",,"use as cofactor in RNA ligation with Archease [2]: enables RtcB to use dGTP efficiently as a cofactor; use as cofactor in RNA ligation ([2]; RtcB alone, no Archease, ssRNA 10-nt substrates): ligation activity is reduced substantially; also recorded: at a rate that is much lower than that with GTP; also recorded: ligation efficiency is reduced greatly"
Nc1nc2c(ncn2[C@@H]2O[C@H](COP(=O)(O)OP(=O)(O)OP(O)(O)=S)[C@@H](O)[C@H]2O)c(=O)[nH]1 [GTPγS],"enabled ligation, albeit at lower efficiency than did GTP",
O=c1ccn([C@@H]2O[C@H](COP(=O)(O)OP(=O)(O)OP(=O)(O)O)[C@@H](O)[C@H]2O)c(=O)[nH]1 [UTP],unable to substitute for GTP,use as cofactor in RNA ligation with Archease [2]: not
Nc1nc2c(ncn2[C@@H]2O[C@H](COP(=O)(O)OP(=O)(O)NP(=O)(O)O)[C@@H](O)[C@H]2O)c(=O)[nH]1 [GppNHp],"enabled ligation, albeit at lower efficiency than did GTP",
"Nc1nc2c(ncn2C2OC(COP(=O)(O)CP(=O)(O)OP(=O)(O)O)C(O)C2O)c(=O)[nH]1 (stereo not drawn) [GpCpp, guanosine 5′-(α,β-methyleno)-triphosphate]",unreactive; also recorded: did not enable the ligation to proceed,
"C78A: E. coli RtcB with Cys78→Ala78 substitution within predicted metal-binding site (protein, UniProt P46850 1-408, looked up, variant C78A) RNA-splicing ligase RtcB: MNYELLTTENAPVKMWTKGVPVEADARQQLINTAKMPFIFKHIAVMPDVHLGKGSTIGSVIPTKGAIIPAAVGVDIGAGMNALRTALTAEDLPENLAELRQAIETAVPHGRTTGRCKRDKGAWENPPVNVDAKWAELEAGYQWLTQKYPRFLNTNNYKHLGTLGTGNHFIEICLDESDQVWIMLHSGSRGIGNAIGTYFIDLAQKEMQETLETLPSRDLAYFMEGTEYFDDYLKAVAWAQLFASLNRDAMMENVVTALQSITQKTVRQPQTLAMEEINCHHNYVQKEQHFGEEIYVTRKGAVSARAGQYGIIPGSMGAKSFIVRGLGNEESFCSCSHGAGRVMSRTKAKKLFSVEDQIRATAHVECRKDAEVIDEIPMAYKDIDAVMAAQSDLVEVIYTLRQVVCVKG",,ligase activity of RtcB variant ([1]; substitution within predicted metal-binding site): abolished ligase activity
"C98A: P. horikoshii RtcB with Cys98→Ala98 substitution within predicted metal-binding site (protein, UniProt O59245 1-871, looked up, variant C98A) MVVPLKRIDKIRWEIPKFDKRMRVPGRVYADEVLLEKMKNDRTLEQATNVAMLPGIYKYSIVMPDGHQGYGFPIGGVAAFDVKEGVISPGGIGYDINALAPGTRVLTEHGYWLKIEEMPEKFKLQRLRVYNIEEGHNDFSKVVFVAEREVGSEEKAIRIVTESGKVIEGSEDHPVLTPEGYVYLRNVKEGDYILVYPFEGVPYEEKKGVILDESAFEGEDPQVVKFLRERNLIPLQWKDPKVGILARILGFALANGYISENDNLTFHGKEEVLREVRKDLEELGIEAIVAEEDKLKVTSREFAFLLEKLGMAHDSIPEWIIEGPLWIKRNFLAGLFGANGSIVEFKGDVPLPITLTHSRELLNDVSRILEGFKVRAKIKMGKNGSYQLVIEDEDSIRNFLGRINYEYDPEKKARGLIAYAYLKFKELMKGNLMTFEEFARDRGYEGGFVAEKVIEVKSVKPEYDKFYDIGVYHSAHNFIANGIVVHNCGVRLIRTNLTEKEVRPRIKQLVDTLFKNVPSGVGSQGRIKLHWTQIDDVLVDGAKWAVDNGYGWERDLERLEEGGRMEGADPEAVSQRAKQRGAPQLGSLGSGNHFLEVQVVDKIFDPEVAKAYGLFEGQVVVMVHTGSRGLGHQVASDYLRIMERAIRKYRIPWPDRELVSVPFQSEEGQRYFSAMKAAANFAWANRQMITHWVRESFQEVFKQDPEGDLGMDIVYDVAHNIGKVEEHEVDGKRVKVIVHRKGATRAFPPGHEAVPRLYRDVGQPVLIPGSMGTASYILAGTEGAMKETFGSTCHGAGRVLSRKAATRQYRGDRIRQELLNRGIYVRAASMRVVAEEAPGAYKNVDNVVKVVSEAGIAKLVARMRPIGVAKG",,ligase activity of RtcB variant ([2]; alanine substitution): abolishes ligase activity
"Archease: Pyrococcus horikoshii Archease (SEQ ID NO:9; UniProt O59205), N-terminal hexahistidine tag (protein, listed as Pyrococcus horikoshii, N-terminal His6 tag) MKKWEHYEHTADIGIRGYGDSLEEAFEAVAIALFDVMVNVNKVEKKEVREIEVEAEDLEALLYSFLEELLVIHDIEGLVFRDFEVKIERVNGKYRLRAKAYGEKLDLKKHEPKEEVKAITYHDMKIERLPNGKWMAQLVPDI",,"effect of Archease on catalysis of RNA ligation by RtcB ([2]; Archease at concentrations lower than RtcB or RNA, GTP 100 μM (FIG. 9)): significantly enhances the catalytic activity of RtcB"

# — patent publication US20130203635A1, “NUCLEIC ACID LIGATION METHOD” (priority 2012, published 2013)
